A short description of data set [1]: OS2 (OPTISAFE2), OPTISAFE formulation with antioxidants. To be noted: for OS2 Cons: majority prediction of the triplicate assays; for OS2 R1 / 0S2 R1: repeat 1, with antioxidants; for OS2 R1 / OS2 R3 / 0S2 R1: predicted GHS class; for OS2 R3: repeat 3, with antioxidants.
The conditions of data set [2]: pH 6.36.
For data set [3] the following is noted: no antioxidants, predicted GHS class, cited from earlier work.
A further data set deals with rabbit eye. To be noted: cited from earlier work.
Setting [4] is: Table 7B, consensus of past application domain study.
Where [5] appears, read: Table 7B, based on the Draize data.
Where [6] appears, read: Table 7A, based on the Draize data.
Setting [7] is: Table 7A, consensus of past transferability study.

Where two headings read alike, the source gives them in different places.

With `CC(C)(O)CCC(C)(C)O`, in data set [1] (Table 7B), the “OS2 Cons” value is recorded as 1, the “OS2 R1” value is 2 and the “OS2 R3” value was 1.
`OCc1cccc(Oc2ccccc2)c1` [3-Phenoxybenzyl alcohol]: in data set [2], the “OS2 Cons” value worked out at 2, the “OS2 R1” value is listed as 2 and the “OS2 R3” value was determined as 2. Besides, in data set [3] (setting [4]), the “OS Cons” value is 2.
As for `OC1CCCC1` [Cyclopentanol], in data set [2], the “OS2 Cons” value is listed as 1, the “OS2 R1” value amounted to 1 and the “OS2 R3” value was 1. Besides, in the data set on rabbit eye (setting [5]), the “In vivo GHS” value is listed as 2A (2A (reversal by 7 days)). Also, the “OS Cons” value in data set [3] (setting [4]) was 1.
`CCCCCCCCOCCCCCCCC` [Dioctyl ether]: the “known ocular irritancy (FIG. 4 legend)” value in the data set with rabbit eye (rabbit, in vivo) was “Nonirritants”.
`O=C(O)CCSSCCC(=O)O` [3,3-Dithiodipropionic acid]: in data set [1] (Table 7A), the “OS2 Cons” value is 1, the “0S2 R1” value was 1 and the “OS2 R3” value is 1.
`CCCCCCCCCCCCCC(=O)OC(C)C` [Isopropyl myristae]: the “known ocular irritancy (FIG. 4 legend)” value in the data set on rabbit eye (rabbit, in vivo) is on record as “Nonirritants”.
Take `O=P(O)(OCc1ccccc1)OCc1ccccc1` [Dibenzyl phosphate]: in data set [1] (Table 7A), the “OS2 Cons” value is listed as 1, the “0S2 R1” value is 1 and the “OS2 R3” value is given as 1.
Take `CC(C=O)Cc1ccc(C(C)(C)C)cc1` (centres unmarked) [Protectol PP]: in data set [1] (Table 7B), the “OS2 Cons” value is listed as 1, the “OS2 R1” value is 1 and the “OS2 R3” value is listed as 1.
As for `C=C1C2CCC(C2)C1(C)C` (centres unmarked) [Camphene], in data set [2], the “0S2 R1” value was 2, the “OS2 Cons” value worked out at 2 and the “OS2 R3” value is on record as 2.
As for `O=C([O-])CCl.[Na+]` [Sodium chloroacetate], in the data set with rabbit eye (setting [6]), the “In vivo GHS” value is given as 2B (2B (reversal by 14 days)).
On to `COC(=O)CC#N` [Methyl cyanoacetate], for which, in data set [2], the “0S2 R1” value stood at 1, the “OS2 Cons” value worked out at 1 and the “OS2 R3” value stood at 1. Besides, the “In vivo GHS” value in the data set with rabbit eye (setting [6]) is recorded as 2A (2A (reversal by 7 days)). Moreover, the “OS Cons” value in data set [3] (setting [7]) is on record as 1.
In the case of `c1c[nH]cn1` [Imidazole], the “In vivo GHS” value in the data set on rabbit eye (rabbit, in vivo) is 1 (key: NC (not classified as an irritant); 2A (reversal by 7 days); 2B (reversal by 14 days); 1 (no reversal by 21 days)).
Turning to `OC1CCCCC1` [Cyclohexanol], in the data set on rabbit eye (Table 3, eye irritation class), the “in vivo GHS” value was 1 (1 (no reversal by 21 days)). For the same compound, the GHS result in the data set with rabbit eye (Table 4) was “Cat. 1”. In the data set on rabbit eye (setting [5]), the “In vivo GHS” value is recorded as 1 (1 (no reversal by 21 days)).
Regarding “Sodium lauroyl sarcosinate [Sodium lauroyl sarcosinate (10%)]”, the “OS2 result, expanded surfactant study” value in data set [1] (due to assay inhibition) is reported as “CNM”.
On to `COC(C)=O` [Methyl acetate], for which, in data set [2], the “OS2 Cons” value turned out to be 2, the “OS2 R1” value was determined as 2 and the “OS2 R3” value is recorded as 2. Further, the “In vivo GHS” value in the data set on rabbit eye (setting [5]) is on record as 2A (2A (reversal by 7 days)). Also, in the data set with rabbit eye (rabbit, in vivo), the “known ocular irritancy (FIG. 4 legend)” value is “Irritants”. In addition, in data set [3] (setting [4]), the “OS Cons” value is on record as 2.
`S=C([S-])NCCNC(=S)[S-].[Mn+2]` [Maneb (solid), Maneb]: the “In vivo GHS” value with rabbit eye (rabbit, in vivo) was 2B (key: NC (not classified as an irritant); 2A (reversal by 7 days); 2B (reversal by 14 days); 1 (no reversal by 21 days)).
Turning to `Cc1ncnc2nc[nH]c12` [6-Methyl purine], the “In vivo GHS” value in the data set with rabbit eye (setting [5]) was 2B (2B (reversal by 14 days)). Besides, in data set [1] (Table 7B), the “OS2 Cons” value is 2/1, the “OS2 R1” value is reported as 2/1 and the “OS2 R3” value is given as 1.
As for `CC(C)CO` [Isobutanol], in data set [2], the “0S2 R1” value was 1, the “OS2 Cons” value amounted to 1 and the “OS2 R3” value is given as 1. Also, in the data set with rabbit eye (setting [6]), the “In vivo GHS” value is on record as 2A (2A (reversal by 7 days)). In addition, the “OS Cons” value in data set [3] (setting [7]) is 1.
Consider `Cc1ccc(C=S)cc1` [p-Methyl thiobenzaldehyde], for which, in data set [2], the “OS2 Cons” value came out at 1, the “OS2 R1” value is listed as 1 and the “OS2 R3” value is 1. In addition, in data set [3] (setting [4]), the “OS Cons” value is recorded as 1.
`CC(=O)CC(=O)OC(C)C` [Isopropyl acetoacetate]: in data set [2], the “OS2 Cons” value was determined as 1, the “OS2 R1” value amounted to 1 and the “OS2 R3” value is reported as 1. Also, the “In vivo GHS” value with rabbit eye (setting [5]) is listed as 2B (2B (reversal by 14 days)). Besides, the “OS Cons” value in data set [3] (setting [4]) is reported as 1.
Turning to `CCCCCCCCCCCC(=O)O` [Lauric acid], in data set [2], the “OS2 Cons” value stood at 1, the “OS2 R1” value was found to be 1 and the “OS2 R3” value came to 1. The “In vivo GHS” value in the data set on rabbit eye (setting [5]) was 1 (1 (no reversal by 21 days)). Besides, the “OS Cons” value in data set [3] (setting [4]) is recorded as 1.
Turning to `CC(C)C=O` [Isobutyraldehyde], in data set [2], the “OS2 Cons” value was 1 and the “OS2 R3” value is recorded as 1. The “In vivo GHS” value in the data set with rabbit eye (rabbit, in vivo) was 2B (key: NC (not classified as an irritant); 2A (reversal by 7 days); 2B (reversal by 14 days); 1 (no reversal by 21 days)).
For `CCCCCCCCO` [n-Octanol], in data set [2], the “OS2 Cons” value was 2, the “OS2 R1” value was 2, the “OS2 R3” value turned out to be 2 and the OS2 score average is 19.1. In addition, in data set [2], the “OS2 scores ranged from” value is 16.5-22.8 and the “Score = Average score” value is 19.1. In addition, the “In vivo GHS” value with rabbit eye (setting [5]) is 2A (2A (reversal by 7 days)). Moreover, the “known ocular irritancy (FIG. 4 legend)” value in the data set with rabbit eye (rabbit, in vivo) is “Irritants”. Moreover, in data set [3] (setting [4]), the “OS Cons” value is 2.
With `N#CCCCl` [3-Chloropropionitrile], in the data set with rabbit eye (setting [5]), the “In vivo GHS” value is 2B (2B (reversal by 14 days)).
Turning to `CC(C)O` [Isopropanol], in data set [2], the “OS2 Cons” value is 2, the “OS2 R1” value was found to be 2 and the “OS2 R3” value was 2. The “In vivo GHS” value with rabbit eye (setting [5]) was 2A (2A (reversal by 7 days)). The “OS Cons” value in data set [3] (setting [4]) was 2.
With `CCCCC(CC)COC(=O)CC(C(=O)OCC(CC)CCCC)S(=O)(=O)[O-].[Na+]` (centres unmarked) [Butanedioic acid, sulfo-, 1,4-bis(2-ethylhexyl) ester, sodium salt], in data set [2], the “OS2 Cons” value is given as 2, the “OS2 R1” value stood at 2 and the “OS2 R3” value was found to be 2. Further, the “In vivo GHS” value with rabbit eye (setting [5]) is 1 (1 (no reversal by 21 days)). The “OS Cons” value in data set [3] (setting [4]) is reported as 2.
For `Nc1ncccc1O` [2-Amino-3-pyridinol], the “In vivo GHS” value with rabbit eye (setting [5]) is 2A (2A (reversal by 7 days)). Besides, in data set [3] (setting [4]), the “OS Cons” value is “CNM”.
On to `CC(O)C(=O)O` (centres unmarked) [Lactic Acid], for which the “In vivo GHS” value in the data set on rabbit eye (rabbit, in vivo) is 1 (key: NC (not classified as an irritant); 2A (reversal by 7 days); 2B (reversal by 14 days); 1 (no reversal by 21 days)).
With `CCCC(C)CO` (centres unmarked) [2-Methyl-1-pentanol], in data set [2], the “0S2 R1” value is given as 2, the “OS2 Cons” value amounted to 2 and the “OS2 R3” value is reported as 2. The “In vivo GHS” value in the data set with rabbit eye (setting [6]) is 2B (2B (reversal by 14 days)).
For `O=C(Nc1ccc(Cl)cc1)Nc1ccc(Cl)c(Cl)c1` [Triclocarban], the “OS Cons” value in data set [3] (setting [4]) is on record as “CNM”. In addition, in data set [1] (Table 7B), the “OS2 Cons” value is “CNM”, the “OS2 R1” value is “CNM” and the “OS2 R3” value is “CNM”.
Consider `O.O.O.O.[Na+].[O-]B1OO1` [Sodium perborate tetrahydrate], for which, in data set [1] (Table 7B), the “OS2 Cons” value was 1, the “OS2 R1” value is 1 and the “OS2 R3” value is 1.
For `CCCCCCO` [n-Hexanol], in data set [2], the “OS2 Cons” value was found to be 2, the “OS2 R1” value stood at 2 and the “OS2 R3” value worked out at 1. Further, the “In vivo GHS” value in the data set on rabbit eye (setting [5]) is 2A (2A (reversal by 7 days)). Moreover, the “OS Cons” value in data set [3] (setting [4]) is reported as 2.
Take `CCCCCCBr` [n-Hexyl bromide]: the “known ocular irritancy (FIG. 4 legend)” value in the data set with rabbit eye (rabbit, in vivo) is reported as “Nonirritants”.

The values are drawn from patent publication US12115147B2, “Formulations and methods related to eye irritation” (Lebrun Labs LLC, priority 2020, dated 2024).
